Here are results for one compound from ChEMBL document CHEMBL3596193, “Pradimicin A, a D-mannose-binding antibiotic, binds pyranosides of L-fucose and L-galactose in a calcium-sensitive manner” (Bioorg Med Chem Lett, 2015).

Molecules are shown by their SMILES. Bounds are passed on as bounds.

Test [1] in a line: Binding affinity to L-[…] assessed as molar ratio of sugar to compound in aggregate at 2 umol incubated at 60 degC for 15 mins, room temperature for 1 hr, and 4 degC for 1 hr by co-precipitation method in presence of 100 umol CaCl2.
The nature of test [2]: Binding affinity to D-Mannose assessed as molar ratio of sugar to compound in aggregate at 2 umol at pH 6 by 1H NMR analysis in presence of 20 umol CaCl2.
The nature of test [3]: Binding affinity to beta-L-[…]-OMe assessed as molar ratio of sugar to compound in aggregate at 2 umol incubated at 60 degC for 15 mins, room temperature for 1 hr, and 4 degC for 1 hr by co-precipitation method in presence of 100 umol CaCl2.
Test [4] is described as follows: Binding affinity to beta-D-Mannose-OMe assessed as molar ratio of sugar to compound in aggregate at 2 umol incubated at 60 degC for 15 mins, room temperature for 1 hr, and 4 degC for 1 hr by co-precipitation method in presence of 100 umol CaCl2.
Test [5] is described as follows: Binding affinity to L-[…] assessed as molar ratio of sugar to compound in aggregate at 2 umol at pH 6 by 1H NMR analysis in presence of 20 umol CaCl2.
Test [6] is described as follows: Binding affinity to alpha-L-[…]-OMe assessed as molar ratio of sugar to compound in aggregate at 2 umol incubated at 60 degC for 15 mins, room temperature for 1 hr, and 4 degC for 1 hr by co-precipitation method in presence of 100 umol CaCl2.
Test [7] is described as follows: Binding affinity to beta-D-Mannose-OMe assessed as molar ratio of sugar to compound in aggregate at 2 umol at pH 6 by 1H NMR analysis in presence of 20 umol CaCl2.
A short description of test [8]: Binding affinity to alpha-L-[…]-OMe assessed as molar ratio of sugar to compound in aggregate at 2 umol at pH 6 by 1H NMR analysis in presence of 20 umol CaCl2.
Test [9] can be described thus: Binding affinity to alpha-D-Mannose-OMe assessed as molar ratio of sugar to compound in aggregate at 2 umol at pH 6 by 1H NMR analysis in presence of 20 umol CaCl2.
Test [10] can be described thus: Binding affinity to Alpha-D-Mannose-OMe assessed as molar ratio of sugar to compound in aggregate at pH 4.5 by co-precipitation method in presence of Ca2+.
Test [11] is described as follows: Binding affinity to alpha-D-Mannose-OMe assessed as molar ratio of sugar to compound in aggregate at 2 umol incubated at 60 degC for 15 mins, room temperature for 1 hr, and 4 degC for 1 hr by co-precipitation method in presence of 100 umol CaCl2.
Test [12] can be described thus: Binding affinity to alpha-L-Galactose-OMe assessed as molar ratio of sugar to compound in aggregate at 2 umol incubated at 60 degC for 15 mins, room temperature for 1 hr, and 4 degC for 1 hr by co-precipitation method in presence of 100 umol CaCl2.
Test [13] can be described thus: Binding affinity to alpha-L-Galactose-OMe assessed as molar ratio of sugar to compound in aggregate at 2 umol at pH 6 by 1H NMR analysis in presence of 20 umol CaCl2.
Test [14] is described as follows: Binding affinity to D-Glucose assessed as molar ratio of sugar to compound in aggregate at 2 umol at pH 6 by 1H NMR analysis in presence of 20 umol CaCl2.
Test [15] is described as follows: Binding affinity to D-Mannose assessed as molar ratio of sugar to compound in aggregate at 2 umol at pH 6 incubated at 60 degC for 15 mins, room temperature for 1 hr, and 4 degC for 1 hr by co-precipitation method in presence of 100 umol CaCl2.
A short description of test [16]: Binding affinity to D-Arabinose assessed as molar ratio of sugar to compound in aggregate at 2 umol at pH 6 by 1H NMR analysis in presence of 20 umol CaCl2.
A short description of test [17]: Binding affinity to alpha-D-Glucose-OMe assessed as molar ratio of sugar to compound in aggregate at 2 umol at pH 6 by 1H NMR analysis in presence of 20 umol CaCl2.
Test [18] in a line: Binding affinity to L-Galactose assessed as molar ratio of sugar to compound in aggregate at 2 umol incubated at 60 degC for 15 mins, room temperature for 1 hr, and 4 degC for 1 hr by co-precipitation method in presence of 100 umol CaCl2.
Test [19] is described as follows: Binding affinity to beta-L-Galactose-OMe assessed as molar ratio of sugar to compound in aggregate at 2 umol incubated at 60 degC for 15 mins, room temperature for 1 hr, and 4 degC for 1 hr by co-precipitation method in presence of 100 umol CaCl2.
Test [20] in a line: Binding affinity to beta-L-[…]-OMe assessed as molar ratio of sugar to compound in aggregate at 2 umol at pH 6 by 1H NMR analysis in presence of 20 umol CaCl2.
The nature of test [21]: Binding affinity to beta-L-Galactose-OMe assessed as molar ratio of sugar to compound in aggregate at 2 umol at pH 6 by 1H NMR analysis in presence of 20 umol CaCl2.
Test [22] in a line: Binding affinity to L-Galactose assessed as molar ratio of sugar to compound in aggregate at 2 umol at pH 6 by 1H NMR analysis in presence of 20 umol CaCl2.
Test [23] is described as follows: Binding affinity to D-Glucose assessed as molar ratio of sugar to compound in aggregate at pH 4.5 by co-precipitation method in presence of Ca2+.

`CN[C@@H]1[C@H](O[C@@H]2OC[C@@H](O)[C@H](O)[C@H]2O)[C@@H](O)[C@H](O[C@H]2c3cc(C)c(C(=O)N[C@H](C)C(=O)O)c(O)c3-c3c(cc4c(c3O)C(=O)c3cc(OC)cc(O)c3C4=O)[C@@H]2O)O[C@@H]1C`: the Activity in [1] is less than 0.1 molar ratio; in [2], 1.07 molar ratio; in test [3], less than 0.1 molar ratio; in test [4], 1.08 molar ratio; in test [5] it was less than 0.1 molar ratio; in test [6], less than 0.1 molar ratio. Also, the Activity is 1.15 molar ratio in [7]; 0.28 molar ratio in [8]; 1.13 molar ratio in test [9]; 1.08 molar ratio in test [10]; 1.11 molar ratio in test [11]; less than 0.1 molar ratio in test [12]. Moreover, the Activity in test [13] was 0.32 molar ratio; in test [14] it was less than 0.1 molar ratio; in test [15] it was 1.08 molar ratio; in test [16], 1.14 molar ratio; in test [17] it was less than 0.1 molar ratio; in test [18] it was less than 0.1 molar ratio. The Activity in [19] is less than 0.1 molar ratio; in test [20] it was 0.52 molar ratio; in test [21], 0.6 molar ratio; in test [22], less than 0.1 molar ratio; in test [23] it was 0.57 molar ratio.
